Reference: patent publication US11566007B2, “Ras inhibitors” (Revolution Medicines, Inc., priority 2019, dated 2023)

What was measured:
K-Ras G13C = K-Ras G13C (Homo sapiens (Human), UniProt P01116+P62937, G13C); experiment: Ras-Raf (BRAF RBD) disruption / FRET / MOA assay, KRAS G13C; format: biochemical; details: KRAS G13C; Ras-Raf disruption/FRET/MOA assay; read-out: IC50* KRAS G13C FRET data
In short: (§1)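 TR-FRET read-out: a drop in ratio relative to DMSO wells marks disruption of the Ras:RAF complex, reported as IC50. Compounds (3-fold series, 10 points, top 30 μM final) incubated 3 h at 25° C before Eu-anti-His 10 nM and APC-anti-GST 50 nM, 1.5 h more.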

NRAS G12C = NRAS G12C (Homo sapiens (Human), UniProt P01111+P62937, G12C); experiment: Ras-Raf (BRAF RBD) disruption / FRET / MOA assay, NRAS G12C; format: biochemical; details: read-out: IC50* NRAS G12C FRET data
NRAS G12C, sequence (P01111 whole entry G12C): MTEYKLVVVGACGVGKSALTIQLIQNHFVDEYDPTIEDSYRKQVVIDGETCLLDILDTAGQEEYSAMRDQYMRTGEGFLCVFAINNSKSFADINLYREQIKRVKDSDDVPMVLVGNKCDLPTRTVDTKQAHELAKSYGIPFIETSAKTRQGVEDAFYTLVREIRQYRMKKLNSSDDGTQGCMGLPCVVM
NRAS G12C, sequence (P62937 whole entry): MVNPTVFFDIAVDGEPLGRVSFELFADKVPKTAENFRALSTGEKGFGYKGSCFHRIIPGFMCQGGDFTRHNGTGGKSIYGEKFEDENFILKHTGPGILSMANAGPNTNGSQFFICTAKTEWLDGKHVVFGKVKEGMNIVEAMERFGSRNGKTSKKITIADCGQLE
In short: as §1

[1] = system: NCI-H358 cells (K-Ras G12C); experiment: Potency assay: pERK in NCI-H358 cells; format: cell-based, human; details: Homo sapiens, NCI-H358; H358 KRAS G12C; read-out: pERK EC50
In short: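 pERK decrease read by AlphaLISA SureFire p-ERK1/2 or In-Cell Western after 4 h compound exposure at 37 °C, 5% CO2.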

KRAS G13D = KRAS G13D (Homo sapiens (Human), UniProt P01116+P62937, G13D); experiment: Ras-Raf (BRAF RBD) disruption / FRET / MOA assay, KRAS G13D; format: biochemical; details: read-out: IC50* KRAS G13D FRET data
KRAS G13D, sequence (P01116-2 other isoform, or with tags, fused parts or gaps G13D): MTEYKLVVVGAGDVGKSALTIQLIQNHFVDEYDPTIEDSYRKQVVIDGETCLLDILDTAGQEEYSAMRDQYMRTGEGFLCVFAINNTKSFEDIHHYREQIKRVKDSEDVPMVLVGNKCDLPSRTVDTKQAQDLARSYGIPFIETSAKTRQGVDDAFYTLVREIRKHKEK
KRAS G13D, sequence (P62937 whole entry): as the sequence (P62937 whole entry) above
In short: as §1

KRAS G12D = KRAS G12D (Homo sapiens (Human), UniProt P01116+P62937, G12D); experiment: Ras-Raf (BRAF RBD) disruption / FRET / MOA assay, KRAS G12D; format: biochemical; details: Ras-Raf disruption/FRET/MOA assay; class symbols; read-out: KRAS G12D FRET data IC50
KRAS G12D, sequence (P01116-2 other isoform, or with tags, fused parts or gaps G12D): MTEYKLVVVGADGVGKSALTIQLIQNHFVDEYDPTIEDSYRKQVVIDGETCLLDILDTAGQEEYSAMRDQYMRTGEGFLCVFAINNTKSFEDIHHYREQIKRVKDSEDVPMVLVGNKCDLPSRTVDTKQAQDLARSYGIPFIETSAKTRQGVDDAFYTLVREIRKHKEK
KRAS G12D, sequence (P62937 whole entry): as the sequence (P62937 whole entry) above
In short: as §1

KRAS G12V = KRAS G12V (Homo sapiens (Human), UniProt P01116+P62937, G12V); experiment: Ras-Raf (BRAF RBD) disruption / FRET / MOA assay, KRAS G12V; format: biochemical; details: read-out: IC50* KRAS G12V FRET data
KRAS G12V, sequence (P01116-2 other isoform, or with tags, fused parts or gaps G12V): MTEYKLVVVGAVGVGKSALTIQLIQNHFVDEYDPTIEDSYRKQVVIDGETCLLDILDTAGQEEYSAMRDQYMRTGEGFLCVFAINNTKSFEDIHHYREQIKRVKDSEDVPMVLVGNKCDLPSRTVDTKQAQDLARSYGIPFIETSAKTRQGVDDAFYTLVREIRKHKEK
KRAS G12V, sequence (P62937 whole entry): as the sequence (P62937 whole entry) above
In short: as §1

NCI-H358 (K-Ras G12C) = experiment: CellTiter-Glo cell viability assay, NCI-H358; format: cell-based, human; details: Homo sapiens, NCI-H358, 120 h, NCI-H358, 5-day treatment; class symbols; read-out: Additional H358 Cell Viability assay data (K-Ras G12C, IC50)
In short: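 Compounds dispensed directly onto seeded K-Ras mutant cells; plates read on day 5 after ~30 min equilibration to room temperature, by CellTiter-Glo luminescence. Signal normalized as (sample/mean DMSO)×100, then fitted to a four-parameter logistic curve.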

KRAS WT = KRAS WT (Homo sapiens (Human), UniProt P01116+P62937); experiment: Ras-Raf (BRAF RBD) disruption / FRET / MOA assay, KRAS WT; format: biochemical; details: read-out: IC50* KRAS WT FRET data
KRAS WT, sequence (P01116-2 other isoform, or with tags, fused parts or gaps): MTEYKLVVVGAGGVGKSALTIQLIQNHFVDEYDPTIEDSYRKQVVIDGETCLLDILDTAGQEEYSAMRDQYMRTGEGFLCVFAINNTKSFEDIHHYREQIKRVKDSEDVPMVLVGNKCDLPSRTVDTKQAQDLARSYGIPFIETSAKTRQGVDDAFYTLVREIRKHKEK
KRAS WT, sequence (P62937 whole entry): as the sequence (P62937 whole entry) above
In short: as §1

KRAS G12S = KRAS G12S (Homo sapiens (Human), UniProt P01116+P62937, G12S); experiment: Ras-Raf (BRAF RBD) disruption / FRET / MOA assay, KRAS G12S; format: biochemical; details: Ras-Raf disruption/FRET/MOA assay; class symbols; read-out: KRAS G12S FRET data IC50
KRAS G12S, sequence (P01116-2 other isoform, or with tags, fused parts or gaps G12S): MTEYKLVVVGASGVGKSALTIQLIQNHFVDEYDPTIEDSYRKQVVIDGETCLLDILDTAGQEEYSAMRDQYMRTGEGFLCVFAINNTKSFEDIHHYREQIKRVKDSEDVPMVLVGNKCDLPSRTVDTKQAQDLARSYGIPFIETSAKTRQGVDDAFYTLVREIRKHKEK
KRAS G12S, sequence (P62937 whole entry): as the sequence (P62937 whole entry) above
In short: as §1

K-Ras G12C = K-Ras G12C (Homo sapiens (Human), UniProt P01116+P62937, G12C); experiment: Ras-Raf (BRAF RBD) disruption / FRET / MOA assay, KRAS G12C; format: biochemical; details: KRAS G12C; Ras-Raf disruption/FRET/MOA assay; read-out: IC50* KRAS G12C FRET data
K-Ras G12C, sequence (P01116-2 other isoform, or with tags, fused parts or gaps G12C): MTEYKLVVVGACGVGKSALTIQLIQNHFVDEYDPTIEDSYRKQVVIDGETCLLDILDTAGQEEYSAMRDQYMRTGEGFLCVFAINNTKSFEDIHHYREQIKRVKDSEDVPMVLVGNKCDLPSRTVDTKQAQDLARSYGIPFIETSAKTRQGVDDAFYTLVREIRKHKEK
K-Ras G12C, sequence (P62937 whole entry): as the sequence (P62937 whole entry) above
In short: as §1

K-Ras G13C, sequence (P01116-2 other isoform, or with tags, fused parts or gaps G13C): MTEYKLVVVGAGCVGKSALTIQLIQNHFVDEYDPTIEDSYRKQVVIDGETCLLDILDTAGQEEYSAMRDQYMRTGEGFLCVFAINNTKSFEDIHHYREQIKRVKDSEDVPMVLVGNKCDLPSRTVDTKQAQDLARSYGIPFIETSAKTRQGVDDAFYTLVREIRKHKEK
K-Ras G13C, sequence (P62937 whole entry): as the sequence (P62937 whole entry) above

| SMILES | IC50 (K-Ras G13C) [µM] | IC50 (NRAS G12C) [µM] | EC50 [1] [µM] | IC50 (KRAS G13D) [µM] | IC50 (KRAS G12D) [µM] | IC50 (KRAS G12V) [µM] | IC50 (NCI-H358 (K-Ras G12C)) [µM] | IC50 (KRAS WT) [µM] | IC50 (KRAS G12S) [µM] | IC50 (K-Ras G12C) [µM] |
| --- | --- | --- | --- | --- | --- | --- | --- | --- | --- | --- |
| C=CC(=O)Nc1cnc(C(=O)N(C)[C@H](C(=O)N[C@H]2Cc3cccc(c3)-c3ccc4c(c3)c(c(-c3cccnc3[C@H](C)OC)n4CC)CC(C)(C)COC(=O)[C@@H]3CCCN(N3)C2=O)C(C)C)n1C (atropisomer, axis not shown) [Example A524] | 0.1 to 1 | 0.1 to 1 | < 5 | > 10 | > 10 | > 10 | 0.01 to 0.1 | > 10 | > 10 | 0.1 to 1 |
| C#CCn1c(-c2cccnc2[C@H](C)OC)c2c3cc(ccc31)-c1cccc(c1)C[C@H](NC(=O)[C@H](C(C)C)N(C)C(=O)[C@H]1CCN(C(=O)C=C)C1)C(=O)N1CCC[C@H](N1)C(=O)OCC(C)(C)C2 (atropisomer, axis not shown) [Example A530] | 1 to 10 | 0.1 to 1 | < 5 | > 10 | > 10 | 1 to 10 | 0.01 to 0.1 | 1 to 10 | 1 to 10 | 0.1 to 1 |
| CCn1c(-c2cccnc2[C@H](C)OC)c2c3cc(ccc31)-c1cccc(c1)C[C@H](NC(=O)[C@H](C(C)C)N(C)C(=O)[C@H]1CCN(C(=O)C#CC3(N(C)C)CCOCC3)C1)C(=O)N1CCC[C@H](N1)C(=O)OCC(C)(C)C2 (atropisomer, axis not shown) [Example A532] | 1 to 10 | 0.01 to 0.1 | < 5 | > 10 | > 10 | 1 to 10 | < 0.01 | 1 to 10 | 1 to 10 | 0.01 to 0.1 |
| CC#CC(=O)N1CC[C@@]2(CCN([C@H](C(=O)N[C@H]3Cc4nc(cs4)-c4ccc5c(c4)c(c(-c4cccnc4[C@H](C)OC)n5CC)CC(C)(C)COC(=O)[C@@H]4CCCN(N4)C3=O)C(C)C)C2=O)C1 (atropisomer, axis not shown) [Example A535] | 1 to 10 | 1 to 10 | < 5 | > 10 | > 10 | > 10 | 0.01 to 0.1 | > 10 | 1 to 10 | 1 to 10 |
| C=CC(=O)N1CC[C@H](C(=O)N(C)[C@H](C(=O)N[C@H]2Cc3cc(O)cc(c3)-c3ccc4c(c3)c(c(-c3cc(CN(C)C)cnc3[C@H](C)OC)n4CC)CC(C)(C)COC(=O)[C@@H]3CCCN(N3)C2=O)C(C)C)C1 (atropisomer, axis not shown) [Example A536] | 0.1 to 1 | 0.01 to 0.1 | < 5 | 0.1 to 1 | 1 to 10 | 0.1 to 1 | 0.01 to 0.1 | 0.1 to 1 | 0.1 to 1 | 0.01 to 0.1 |
| CCn1c(-c2cccnc2[C@H](C)OC)c2c3cc(ccc31)-c1cc(cc(C(F)F)c1)C[C@H](NC(=O)C(COC1CN(C(=O)C#CC(C)(C)N(C)C)C1)C(C)C)C(=O)N1CCC[C@H](N1)C(=O)OCC(C)(C)C2 (mixture of isomers) [Example A404] | > 10 | 0.1 to 1 | < 5 | > 10 | > 10 | > 10 | 0.01 to 0.1 | > 10 | > 10 | 0.1 to 1 |
| C=CC(=O)N1CC(OCC(C(=O)N[C@H]2Cc3cccc(c3)-c3ccc4c(c3)c(c(-c3cccnc3[C@H](C)OC)n4CC(F)(F)F)CC(C)(C)COC(=O)[C@@H]3CCCN(N3)C2=O)C(C)C)C1 (mixture of isomers) [Example A453] | > 10 | 1 to 10 | < 5 | > 10 | > 10 | > 10 | 0.1 to 1 | > 10 | > 10 | 1 to 10 |
| C=CC(=O)N1CC(OCC(C(=O)N[C@H]2Cc3nc(cs3)-c3ccc4c(c3)c(c(-c3cccnc3[C@H](C)OC)n4CC)CC(C)(C)COC(=O)[C@@H]3CCCN(N3)C2=O)C(C)C)C1 (mixture of isomers) [Example A473] | 1 to 10 | 0.1 to 1 | < 5 | 1 to 10 | > 10 | 1 to 10 | 0.01 to 0.1 | 1 to 10 | 1 to 10 | 0.1 to 1 |
